The test deals with T1, Chk1 (checkpoint kinase-1) (Homo sapiens, UniProt O14757).
T1 construct: gene CHEK1; recombinant Chk1
T1 sequence (O14757 1-476): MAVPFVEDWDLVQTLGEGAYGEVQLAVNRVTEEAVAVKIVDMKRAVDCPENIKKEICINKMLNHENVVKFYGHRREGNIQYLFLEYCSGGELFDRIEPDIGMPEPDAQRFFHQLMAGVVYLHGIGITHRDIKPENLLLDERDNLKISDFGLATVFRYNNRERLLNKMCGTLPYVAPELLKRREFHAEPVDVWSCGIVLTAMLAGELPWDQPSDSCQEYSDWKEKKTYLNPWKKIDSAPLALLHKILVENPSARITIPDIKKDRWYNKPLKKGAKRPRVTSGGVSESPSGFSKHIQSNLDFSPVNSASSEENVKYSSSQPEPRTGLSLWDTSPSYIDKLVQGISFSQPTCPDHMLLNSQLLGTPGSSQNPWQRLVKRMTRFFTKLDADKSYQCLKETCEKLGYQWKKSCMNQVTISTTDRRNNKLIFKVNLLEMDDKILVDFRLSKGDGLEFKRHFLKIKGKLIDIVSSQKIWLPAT
Briefly: in vitro inhibition of recombinant Chk1 (assay details not given). The format is biochemical.

The term IC50 denotes the concentration that gives 50% inhibition.

With SD1825, the IC50 was 0.029 µM.

The record behind these values is paper PMC2131784, “Inhibition of Chk1 Kills Tetraploid Tumor Cells through a p53-Dependent Pathway” (PLoS ONE, 2007).
